The values that follow are results of earlier work, collected in article PMC12785453, “Oral Fluid Concentrations and Pharmacological Effects of Clephedrone and Methylone in Humans” (International Journal of Molecular Sciences, 2025).

One data set concerns humans. The note with it: mephedrone, previous studies; cited from earlier work.
For data set [1] the following is noted: cited from earlier work.

Values joined by “and” are separate entries in the source; they are usually repeats but may differ in a detail not shown here. Equal values may be shown once.

As to `CNC(C)C(=O)c1ccc(C)cc1` (stereo not shown) [mephedrone, 4-methylmethcathinone], in the data set on humans, the “Effects returned to baseline after” value was 2 to 3 h; the “Time of peak effects” value was 0.75 h and 0.75 to 1 h. In addition, in data set [1], the “Tmax in oral fluid” value was 2 h and the Tmax in plasma is on record as 1.25 h.
